5 compounds from patent US20220287345A1, “SOLUBILITY ENHANCEMENT OF POORLY SOLUBLE ACTIVES” (Evonik Operations GmbH, priority 2019, published 2022) can be followed below.

Converted amounts (≈) assume the structure as drawn.

A short description of this data set: physchem. Particulars: for solubility: water, thermodynamic from solid. Here is the method: Analysis of the blend was done and its solubility in water was analyzed (table 3).
All the tablets prepared as shown in table 8 were analyzed in water to check whether there is an enhancement in solubility of the drug when compared to the pure form (table 9).
The compressed tablets prepared according table 13 were analyzed in water to check whether there is any enhancement in solubility of the drug when compared to the pure form (table 14).
All the blends and tablets prepared according to table 15 were analyzed in water for any enhancement in solubility of the drug when compared to the pure form.
The capsules were further analyzed for water solubility of the active ingredient.
The solution was spray dried using a spray drier (Inlet temperature: 55-60° C., Aspirator: 90-100%).

As a reminder, the solubility is how much of the substance goes into solution per volume. Read a high solubility as much dissolved substance. With `Cc1ccc(-c2cc(C(F)(F)F)nn2-c2ccc(S(N)(=O)=O)cc2)cc1` [Experiment C-1, Celecoxib], the solubility was found to be 0.1 µg/mL (≈ 0.262 µM).
`COc1cc(/C=C/C(=O)CC(=O)/C=C/c2ccc(O)c(OC)c2)ccc1O` [Experiment C-4, Curcumin]: the “Solubility of AFI/API in water” value came to 0.0 µg/mL.
Compound `O=c1c(O)c(-c2ccc(O)c(O)c2)oc2cc(O)cc(O)c12` [Experiment C-6, Quercetin] returned a solubility of 3.6 µg/mL (≈ 11.9 µM).
Still for that read-out and setting: the result for `Cc1ccc(S(=O)(=O)NC(=O)NN2CC3CCCC3C2)cc1` (centres unmarked) [Experiment C-8, Gliclazide] reads 21 µg/mL (≈ 64.9 µM); that for `NC(=O)N1c2ccccc2C=Cc2ccccc21` [Experiment C-9, Carbamazepine], 240 µg/mL (≈ 1020 µM).
